Reference: ChEMBL document CHEMBL4196217, “Structure-Based Drug Design and Identification of H2O-Soluble and Low Toxic Hexacyclic Camptothecin Derivatives with Improved Efficacy in Cancer and Lethal Inflammation Models in Vivo” (J Med Chem, 2018)
Activity calls are given as the source filed them. The calls are words filed in the database; no cut-off is given here.

What was measured:
Mus musculus [1] = test: Toxicity in Balb/C mouse administered as daily dose for 1 week measured daily for up to 28 days; type: organism-based; details: in vivo
[2] = Aqueous solubility of the compound; type: physicochemical; details: buffer
Mus musculus [3] = test: Toxicity in Balb/C mouse administered as single dose measured daily for up to 28 days; type: organism-based; details: in vivo, 672 h
HepG2 [4] = test: Antitumor activity against human HepG2 cells xenografted in Balb/C mouse assessed as inhibition of tumor growth at dosed intravenously once per week for 30 days followed by 2 weeks observation; type: functional, organism-based
[5] = biological target: T1, DNA topoisomerase 1 (Homo sapiens) (UniProt P11387); test: Inhibition of human recombinant topoisomerase-1 activity at 50 uM using supercoiled pHOT-1 DNA incubated for 30 mins by ethidium bromide free agarose gel elctrophoresis method
T1 sequence (whole entry): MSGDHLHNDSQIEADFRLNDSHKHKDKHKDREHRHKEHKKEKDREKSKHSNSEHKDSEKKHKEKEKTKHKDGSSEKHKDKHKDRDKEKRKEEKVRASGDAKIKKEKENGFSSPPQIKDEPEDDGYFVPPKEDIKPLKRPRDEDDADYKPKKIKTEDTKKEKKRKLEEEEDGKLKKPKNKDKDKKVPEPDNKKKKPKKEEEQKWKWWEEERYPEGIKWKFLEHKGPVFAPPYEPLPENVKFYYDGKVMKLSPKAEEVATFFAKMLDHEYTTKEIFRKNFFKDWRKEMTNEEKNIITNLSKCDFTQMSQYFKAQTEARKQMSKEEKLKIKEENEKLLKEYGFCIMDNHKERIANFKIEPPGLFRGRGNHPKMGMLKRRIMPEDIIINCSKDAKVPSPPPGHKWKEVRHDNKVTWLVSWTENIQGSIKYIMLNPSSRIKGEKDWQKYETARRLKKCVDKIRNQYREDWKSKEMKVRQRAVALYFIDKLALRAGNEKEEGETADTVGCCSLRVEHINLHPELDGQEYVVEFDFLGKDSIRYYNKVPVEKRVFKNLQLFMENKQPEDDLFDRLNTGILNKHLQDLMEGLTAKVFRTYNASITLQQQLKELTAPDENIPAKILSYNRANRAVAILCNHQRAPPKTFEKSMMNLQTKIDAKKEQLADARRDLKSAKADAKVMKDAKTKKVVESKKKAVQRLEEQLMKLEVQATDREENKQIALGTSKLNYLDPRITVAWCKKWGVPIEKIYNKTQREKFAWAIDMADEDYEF

[6] = biological target: T1, DNA topoisomerase 1 (Homo sapiens); test: Inhibition of human recombinant topoisomerase-1-mediated DNA cleavage in at 50 uM using supercoiled pHOT-1 DNA incubated for 30 mins by ethidium bromide staining based agarose gel elctrophoresis method
[7] = biological target: T1, DNA topoisomerase 1 (Homo sapiens); test: Inhibition of human recombinant topoisomerase-1 activity at 100 uM using supercoiled pHOT-1 DNA incubated for 30 mins by ethidium bromide free agarose gel elctrophoresis method
Mus musculus [8] = test: Reduction in IL6 level in C57BL/6 mouse model of LPS-induced sepsis at 10 mg/kg, po dosed 0.5 hrs before LPS injection followed by 10 mg/kg, po dosing at 1 hr, 4 hrs, and 8 hrs after LPS treatment; type: functional, organism-based
[9] = biological target: T1, DNA topoisomerase 1 (Homo sapiens); test: Inhibition of human recombinant topoisomerase-1-mediated DNA cleavage in at 100 uM using supercoiled pHOT-1 DNA incubated for 30 mins by ethidium bromide staining based agarose gel elctrophoresis method
Mus musculus [10] = test: Reduction in IL6 level in C57BL/6 mouse model of LPS-induced sepsis at 10 mg/kg, po dosed 0.5 hrs before LPS injection followed by 20 mg/kg, po dosing at 1 hr, 4 hrs, and 8 hrs after LPS treatment; type: functional, organism-based
Mus musculus [11] = test: Reduction in IL6 level in C57BL/6 mouse model of LPS-induced sepsis at 4 mg/kg, iv dosed 0.5 hrs before LPS injection followed by 4 mg/kg, iv dosing at 1 hr, 4 hrs, and 8 hrs after LPS treatment; type: functional, organism-based
Mus musculus [12] = test: Reduction in IL6 level in C57BL/6 mouse model of LPS-induced sepsis at 2 mg/kg, iv dosed 0.5 hrs before LPS injection followed by 2 mg/kg, iv dosing at 1 hr, 4 hrs, and 8 hrs after LPS treatment; type: functional, organism-based
Mus musculus [13] = test: Reduction in IL6 level in C57BL/6 mouse model of LPS-induced sepsis at 8 mg/kg, po dosed 0.5 hrs before LPS injection followed by 8 mg/kg, po dosing at 1 hr, 4 hrs, and 8 hrs after LPS treatment; type: functional, organism-based
Mus musculus [14] = test: Reduction in IL6 level in C57BL/6 mouse model of LPS-induced sepsis at 4 mg/kg, po dosed 0.5 hrs before LPS injection followed by 4 mg/kg, po dosing at 1 hr, 4 hrs, and 8 hrs after LPS treatment; type: functional, organism-based
SGC-7901 = test: Cytotoxicity in human SGC7901 cells assessed as reduction in cell viability incubated for 48 hrs by MTT assay; type: functional, cell-based; details: SGC-7901, 48 h
QGY-7703 = test: Cytotoxicity in human QGY7703 cells assessed as reduction in cell viability incubated for 48 hrs by MTT assay; type: functional, cell-based; details: QGY-7703, 48 h
MDA-MB-231 = test: Cytotoxicity in human MDA-MB-231 cells assessed as reduction in cell viability incubated for 48 hrs by MTT assay; type: functional, cell-based; details: MDA-MB-231, 48 h
SMMC-7721 = test: Cytotoxicity in human SMMC7721 cells assessed as reduction in cell viability incubated for 48 hrs by MTT assay; type: functional, cell-based; details: SMMC-7721, 48 h
Bel-7402 = test: Cytotoxicity in human Bel7402 cells assessed as reduction in cell viability incubated for 48 hrs by MTT assay; type: functional, cell-based; details: Bel-7402, 48 h
MGC-803 = test: Cytotoxicity in human MGC803 cells assessed as reduction in cell viability incubated for 48 hrs by MTT assay; type: functional, cell-based; details: MGC-803, 48 h
A549 = test: cells; details: Homo sapiens, A549, 48 h
Description: Cytotoxicity in human A549 cells assessed as reduction in cell viability incubated for 48 hrs by MTT assay

MCF7 = test: cells; details: Homo sapiens, MCF7, 48 h
Description: Cytotoxicity in human MCF7 cells assessed as reduction in cell viability incubated for 48 hrs by MTT assay

KB = test: Cytotoxicity in human KB cells assessed as reduction in cell viability incubated for 48 hrs by MTT assay; type: functional, cell-based
HepG2 [15] = test: Cytotoxicity in human HepG2 cells assessed as reduction in cell viability incubated for 48 hrs by MTT assay; type: functional, cell-based; details: HepG2, 48 h
SK-N-SH = test: Cytotoxicity in human SK-N-SH cells assessed as reduction in cell viability incubated for 48 hrs by MTT assay; type: functional, cell-based

| Compound | TGI (HepG2 [4]) | inhibition [5] | inhibition [6] | inhibition [7] | IC50 (SGC-7901) | IC50 (QGY-7703) | IC50 (MDA-MB-231) | IC50 (SMMC-7721) | IC50 (Bel-7402) | IC50 (MGC-803) | IC50 (A549) | IC50 (MCF7) | IC50 (KB) | IC50 (HepG2 [15]) | also measured |
| --- | --- | --- | --- | --- | --- | --- | --- | --- | --- | --- | --- | --- | --- | --- | --- |
| CC[C@@]1(OC(=O)CNC(=O)CCC(=O)[O-])C(=O)OCc2c1cc1n(c2=O)Cc2cc3c(ccc4oc(C(C)C)nc43)nc2-1.[Na+] |  |  |  |  |  |  |  |  |  |  |  |  |  |  | MTD (Mus musculus [1]): 30 mg/kg; solubility [2]: 5.07 mg/mL; MTD (Mus musculus [3]): 60 mg/kg |
| CC[C@@]1(OC(=O)CNC(=O)CCC(=O)O)C(=O)OCc2c1cc1n(c2=O)Cc2cc3c(ccc4oc(C(C)C)nc43)nc2-1 | Dose-dependent effect | Active | Active | Active |  |  |  |  |  |  |  |  |  |  | Activity (Mus musculus [8]): Active; inhibition [9]: Active; Activity (Mus musculus [10]): Active |
| CC[C@@]1(OC(=O)CNC(=O)CCC(=O)O)C(=O)OCc2c1cc1n(c2=O)Cc2cc3c4c(ccc3nc2-1)OC(C(C)C)NC4=O (some centres undefined) | Dose-dependent effect | inactive | inactive | inactive |  |  |  |  |  |  |  |  |  |  | Activity (Mus musculus [11]): Active; Activity (Mus musculus [12]): Active; Activity (Mus musculus [13]): Active; Activity (Mus musculus [14]): Active |
| CC[C@@]1(O)C(=O)OCc2c1cc1n(c2=O)Cc2cc3c(ccc4oc(-c5ccccn5)nc43)nc2-1 |  |  |  |  | > 10 µM | > 10 µM | 2000 nM | > 10 µM | 1930 nM | 54 nM | 1500 nM | 6.44 µM | 2040 nM | 71 nM |  |
| CC[C@@]1(OC(=O)CNC(=O)CCC(=O)O)C(=O)OCc2c1cc1n(c2=O)Cc2cc3c(ccc4ocnc43)nc2-1 |  |  |  |  | > 10 µM | > 10 µM | 348 nM | > 10 µM | 275 nM | 64 nM | 92 nM | > 10 µM | 916 nM | 55 nM | IC50 (SK-N-SH): 348 nM |
| CC[C@@]1(O)C(=O)OCc2c1cc1n(c2=O)Cc2cc3c(ccc4oc(CC(C)C)nc43)nc2-1 |  |  |  |  | > 10 µM | > 10 µM | 2140 nM | 11 µM | 2140 nM | 90 nM | 3370 nM | 7.87 µM | 2200 nM | 79 nM |  |
